Source: patent publication US8986650B2, “Complex folate-NOTA-Ga68” (Guerbet, priority 2005, dated 2015)
Where two headings read alike, the source gives them in different places.

Legend:
ovarian cancer = details: patients, phase I/II study; cited from earlier work
KB tumor cells (FR+) [1] = tested on: KB tumor cells (FR+)
Experimental: Nude mice bearing KB-tumors were used for this study.
The NODAGA-LINKER-FOLATE derivative was labeled with ^67Ga by incubation at RT with 37 MBq of ^67GaCl3 in HEPES buffer. […] It was diluted with 0.9% NaCl at a concentration of 4 nmol/ml and this solution was injected to the mice (100 μl/0.4 nmol/mouse).
One week before the tumor cell inoculation all mice were put under a folate low diet (SAFE company, semi-synthetic product with 50 μg/kg of folate) until the end of the study.
At D0, the tumor inoculation was performed as follow: One million (10^6) of KB tumor cells (FR+) resuspended at 1×10^7 cells/ml in sterile PBS 0.01M, pH 7.4, were subcutaneously inoculated in the right flank of the nude mice in a volume of 100 μl. The tumors were allowed to grow for 8-9 days. For the in vivo evaluation the mice were grouped in groups of 3 mice per group.
At D9 biodistribution studies were performed for the ^67Ga-NODAGA-LINKER-FOLATE (compound 2′ complexed by Ga67) in groups of mice as follow: • 3 groups: injection with ^67Ga-NODAGA-LINKER-FOLATE (compound 2′ complexed by Ga67) (0.4 nmol/10 μCi/100 μl/mouse) • 1 group: injection of Folic acid (40 nmol/100 μl/mouse) 5 min before the injection of ^67Ga-NODAGA-LINKER-FOLATE (compound 2′ complexed by Ga67) • 1 group: injection of Alimta (400 μg/100 μl/mouse) 1 h before the injection of ^67Ga-NODAGA-LINKER-FOLATE (compound 2′ complexed by Ga67) • Time points: 2 h, 4 h, 4 h (blocking with FA), 4 h (kidney blocking with Alimta), 24 h p.i. Results

KB tumor cells (FR+) [2] = assay: Biodistribution of NODAGA-LINKER-FOLATE-Ga68 in nude mice bearing KB-tumors; type: in vivo; details: for Ratio tumor:blood / Ratio tumor:bone / Ratio tumor:kidney / Ratio tumor:liver / Ratio tumor:muscle / Ratio tumor:pancreas / Ratio tumor:parotid: 1 h post-injection
Experimental: The NODAGA-LINKER-FOLATE derivative was labeled with ^68Ga using the Modular-Lab automatic system by Eckert & Ziegler.
NODAGA-LINKER-FOLATE-Ga68 compound (compound 2) was obtained in radiochemical purity preferably >92 to >98%.
At D0, the tumor inoculation was performed as follow: One million (10^6) of KB tumor cells (FR+) resuspended at 1×10^7 cells/ml in sterile PBS 0.01M, pH 7.4, were subcutaneously inoculated in the right flank of the nude mice in a volume of 100 μl.
At D8 biodistribution studies and PET/CT images were performed for NODAGA-folate-Ga68 (compound 2) in 2 groups of mice as follow: • 1 group: injection with NODAGA-LINKER-FOLATE-Ga68 (compound 2) (0.4 nmol/2 MBq/100 μl/mouse) • 1 group: injection of Alimta (400 μg/100 μl/mouse) 1 h before the injection of NODAGA-LINKER-FOLATE-Ga68 (compound 2) • Time point: 1 h p.i.

OVCAR-3 tumors = assay: Biodistribution and PET/CT imaging in mice model bearing OVCAR-3 tumor; type: in vivo, SCID mice
Experimental: Similar protocol was used for OVCAR-3 tumor models.
For the kidney blocking the antifolate Alimta, at a concentration of 4 mg/ml in PBS pH 7.4 was used.
For the Folate Receptors blocking Folic acid in 100-fold excess (400 nmol/ml) in PBS pH 7.4 was used.

[3] = Parotid gland uptake in normal mice without folate-free diet; type: in vivo; details: no folate-free diet
[4] = 4 h Alimta pre-injection (400 μg/mouse, 1 h)
[5] = 4 h blocking with Folic acid (100-fold excess, 5 min pre-injection)
[6] = Group 1: Alimta 400 μg/mouse 1 h pre-injection

## Nc1nc2ncc(CNc3ccc(C(=O)N[C@@H](CCC(=O)NCCNC(=O)CN(CCN(CCN(CC(=O)[O-])CC(=O)[O-])CC(=O)[O-])CC(=O)[O-])C(=O)O)cc3)nc2c(=O)[nH]1.[111In] [111In-DTPA-folate]
Ovarian cancer
  Target-tissue uptake and non target-tissue clearance: rapid target-tissue uptake and non target-tissue clearance

## Nc1nc2ncc(CNc3ccc(C(=O)N[C@@H](CCC(=O)NCCNC(=O)CCC(C(=O)[O-])N4CCN(CC(=O)[O-])CCN(CC(=O)[O-])CC4)C(=O)O)cc3)nc2c(=O)[nH]1.[67Ga+3] (some centres unmarked) [NODAGA-LINKER-FOLATE-Ga67]
KB tumor cells (FR+) [1]; 2 h
  Biodistribution, Parotid gland: 9.10 ± 3.39
  Biodistribution, adrenal: 3.09 ± 0.52
  Biodistribution, blood: 0.09 ± 0.02
  Biodistribution, intestine: 0.50 ± 0.12
  Biodistribution, kidney: 142.14 ± 15.46
  Biodistribution, liver: 1.38 ± 0.50
  Biodistribution, lung: 1.32 ± 0.15
  Biodistribution, muscle: 1.49 ± 0.18
  Biodistribution, pancreas: 2.91 ± 0.08
  Biodistribution, pituitary: 0.53 ± 0.24
  Biodistribution, spleen: 0.48 ± 0.11
  Biodistribution, stomach: 1.58 ± 0.12
KB tumor cells (FR+) [1]; 4 h
  Biodistribution, Parotid gland: 8.58 ± 2.33
  Biodistribution, adrenal: 2.80 ± 0.10
  Biodistribution, blood: 0.06 ± 0.01
  Biodistribution, intestine: 0.43 ± 0.16
  Biodistribution, kidney: 130.31 ± 14.65
  Biodistribution, liver: 1.07 ± 0.18
  Biodistribution, lung: 1.36 ± 0.37
  Biodistribution, muscle: 2.12 ± 0.31
  Biodistribution, pancreas: 2.92 ± 0.11
  Biodistribution, pituitary: 0.79 ± 0.74
  Biodistribution, spleen: 0.46 ± 0.10
  Biodistribution, stomach: 1.47 ± 0.08
KB tumor cells (FR+) [1]; [4]
  Biodistribution, Parotid gland: 6.10 ± 2.09
  Biodistribution, adrenal: 1.75 ± 0.23
  Biodistribution, blood: 0.04 ± 0.01
  Biodistribution, intestine: 0.50 ± 0.37
  Biodistribution, kidney: 19.13 ± 6.66
  Biodistribution, liver: 0.88 ± 0.26
  Biodistribution, lung: 0.68 ± 0.18
  Biodistribution, muscle: 1.26 ± 0.38
  Biodistribution, pancreas: 2.20 ± 0.69
  Biodistribution, pituitary: 0.59 ± 0.41
  Biodistribution, spleen: 0.31 ± 0.13
  Biodistribution, stomach: 0.84 ± 0.31
KB tumor cells (FR+) [1]; [5]
  Biodistribution, Parotid gland: 0.18 ± 0.06
  Biodistribution, adrenal: 0.02 ± 0.01
  Biodistribution, blood: 0.00 ± 0.00
  Biodistribution, intestine: 0.08 ± 0.07
  Biodistribution, kidney: 6.49 ± 1.03
  Biodistribution, liver: 0.06 ± 0.00
  Biodistribution, lung: 0.06 ± 0.00
  Biodistribution, muscle: 0.03 ± 0.00
  Biodistribution, pancreas: 0.05 ± 0.00
  Biodistribution, pituitary: −0.02 ± 0.01
  Biodistribution, spleen: 0.04 ± 0.01
  Biodistribution, stomach: 0.09 ± 0.06
KB tumor cells (FR+) [1]; 24 h
  Biodistribution, Parotid gland: 5.57 ± 0.82
  Biodistribution, adrenal: 5.04 ± 5.96
  Biodistribution, blood: 0.04 ± 0.02
  Biodistribution, intestine: 0.37 ± 0.13
  Biodistribution, kidney: 97.62 ± 11.59
  Biodistribution, liver: 0.87 ± 0.16
  Biodistribution, lung: 0.94 ± 0.31
  Biodistribution, muscle: 1.14 ± 0.01
  Biodistribution, pancreas: 2.37 ± 0.17
  Biodistribution, pituitary: 0.41 ± 0.39
  Biodistribution, spleen: 0.37 ± 0.13
  Biodistribution, stomach: 1.01 ± 0.10
KB tumor cells (FR+) [1]; KB-tumor bearing nude mice
  Time of maximum tumor uptake: 2 h p.i.
KB tumor cells (FR+) [1]; at 24 h p.i.
  Tumor uptake: remains high
KB tumor cells (FR+) [1]; blocking experiment with folic acid
  Specificity of tumor uptake: specific
KB tumor cells (FR+) [1]; with the use of Alimta
  Kidney uptake: significantly reduced
  Tumor uptake: remained the same

## Nc1nc2ncc(CNc3ccc(C(=O)N[C@@H](CCC(=O)NCCNC(=O)CCC(C(=O)O)N4CCN(CC(=O)O)CCN(CC(=O)O)CC4)C(=O)O)cc3)nc2c(=O)[nH]1 (some centres unmarked) [NODAGA-LINKER-FOLATE-Ga68, folate-NODAGA-Ga68, metal not drawn]
KB tumor cells (FR+) [2]; [6]
  Ratio tumor:blood: 49.33
  Ratio tumor:bone: 20.96
  Ratio tumor:kidney: 0.69
  Ratio tumor:liver: 10.49
  Ratio tumor:muscle: 13.32
  Ratio tumor:pancreas: 9.30
  Ratio tumor:parotid: 2.63
KB tumor cells (FR+) [2]; Group 2: no Alimta
  Ratio tumor:blood: 64.85
  Ratio tumor:bone: 28.11
  Ratio tumor:kidney: 0.17
  Ratio tumor:liver: 6.64
  Ratio tumor:muscle: 9.95
  Ratio tumor:pancreas: 6.89
  Ratio tumor:parotid: 1.72
KB tumor cells (FR+) [2]; KB-tumor mice under folate-free diet
  Uptake in the parotid gland: High uptake
OVCAR-3 tumors; 1 h post injection
  PET/CT images: background: negligible background
  PET/CT images: kidneys: high uptake in the kidneys
  PET/CT images: tumors: clear visualization of the tumors
OVCAR-3 tumors; mouse, in vivo
  Quality of PET/CT images: Very satisfying
[3]
  High uptake in the parotid gland: This was not the case
